Data from publication PMC10531082, “Antiproliferative and Antimetastatic Properties of 16-Azidomethyl Substituted 3-O-Benzyl Estrone Analogs” (International Journal of Molecular Sciences, 2023).
Read-outs that look alike come from different tables or passages of the source.

How the values were obtained:
[1] = test system: HeLa; assay: cells; design: MTT antiproliferative assay, absorbance at 545 nm, inhibition versus untreated control; conditions: Homo sapiens; for inhibition at 10 µM / inhibition at 30 µM: read-out: Growth inhibition (%) HeLa
Experimental: (§1) The antiproliferative capacities of the prepared compounds were determined by employing the MTT assay against a panel of human adherent cancer cell lines isolated from breast (MCF-7 and MDA-MB-231) or cervical (HeLa and SiHa) tumors. All compounds were tested at two concentrations (10 and 30 μM). When >50% of antiproliferative capacity was obtained at 10 μM, the assays were repeated with a broader concentration range (0.1–30 μM), and IC50 values were calculated (Figure 2, Supplementary Table S1, Supplementary Figure S1). […] MTT assays were performed against the non-cancerous fibroblast cell line NIH/3T3 to obtain preliminary data on cancer selectivity of 16AABE and 16BABE. […] The ratios of IC50 values obtained against cancer cells and fibroblasts were in the range of 0.2 and 0.5, indicating substantial cancer selectivity of these two compounds (Table 1). Cancer cells were seeded onto a 96-well microplate for the proliferation assay at a density of 5000 cells/well. After 24 h of incubation, 200 μL of new medium containing the test compounds at 10 or 30 µM concentrations was added. Absorbance of the reduced MTT solution was measured at 545 nm using a microplate reader, with untreated cells serving as the negative control. In the case of active compounds (i.e., >50% cell growth inhibition at 10 μM), the assay was repeated with a series of dilutions, and sigmoidal dose–response curves were fitted to the obtained data. The IC50 values, representing the concentration at which cell proliferation was reduced by 50% compared with the untreated control, were calculated using GraphPad Prism 5 (GraphPad Software, San Diego, CA, USA). Each in vitro experiment was conducted on two microplates with a minimum of five parallel wells. […] Cisplatin was used as a reference agent.

[2] = test system: MCF-7; assay: cells; design: MTT antiproliferative assay, absorbance at 545 nm, inhibition versus untreated control; conditions: Homo sapiens, MCF7; for inhibition at 10 µM / inhibition at 30 µM: read-out: Growth inhibition (%) MCF-7
Experimental: as §1

[3] = test system: MDA-MB-231; assay: cells; design: MTT antiproliferative assay, absorbance at 545 nm, inhibition versus untreated control; conditions: Homo sapiens; for inhibition at 10 µM / inhibition at 30 µM: read-out: Growth inhibition (%) MDA-MB-231
Experimental: as §1

[4] = test system: SiHa; assay: cells; design: MTT antiproliferative assay, absorbance at 545 nm, inhibition versus untreated control; conditions: Homo sapiens; for inhibition at 10 µM / inhibition at 30 µM: read-out: Growth inhibition (%) SiHa
Experimental: as §1

[5] = in vitro; design: MTT assay on non-cancerous NIH/3T3 fibroblasts, absorbance at 545 nm, selectivity counter-screen; conditions: mouse, nih/3t3 cells; read-out: IC50 NIH/3T3
Experimental: The antiproliferative capacities of the prepared compounds were determined by employing the MTT assay against a panel of human adherent cancer cell lines isolated from breast (MCF-7 and MDA-MB-231) or cervical (HeLa and SiHa) tumors. All compounds were tested at two concentrations (10 and 30 μM). When >50% of antiproliferative capacity was obtained at 10 μM, the assays were repeated with a broader concentration range (0.1–30 μM), and IC50 values were calculated (Figure 2, Supplementary Table S1, Supplementary Figure S1). […] MTT assays were performed against the non-cancerous fibroblast cell line NIH/3T3 to obtain preliminary data on cancer selectivity of 16AABE and 16BABE. […] The ratios of IC50 values obtained against cancer cells and fibroblasts were in the range of 0.2 and 0.5, indicating substantial cancer selectivity of these two compounds (Table 1). The antiproliferative activity of the presented compounds were evaluated against a panel of human gynecological cancer cell lines. MCF-7 and MDA-MB-231 cell lines were derived from breast cancers, while HeLa and SiHa cell lines originated from cervical cancers of different pathological backgrounds. […] Absorbance of the reduced MTT solution was measured at 545 nm using a microplate reader, with untreated cells serving as the negative control. […]

[6] = test system: HeLa; assay: cells; design: MTT assay, growth inhibition of cells relative to untreated control; conditions: Homo sapiens, HeLa; for inhibition at 10 µM: read-out: Growth inhibition (%) at 10 uM; for inhibition at 30 µM: read-out: Growth inhibition (%) at 30 uM
Experimental: (§2) Cancer cells were seeded onto a 96-well microplate for the proliferation assay at a density of 5000 cells/well. After 24 h of incubation, 200 μL of new medium containing the test compounds at 10 or 30 µM concentrations was added. Absorbance of the reduced MTT solution was measured at 545 nm using a microplate reader, with untreated cells serving as the negative control. In the case of active compounds (i.e., >50% cell growth inhibition at 10 μM), the assay was repeated with a series of dilutions, and sigmoidal dose–response curves were fitted to the obtained data. The IC50 values, representing the concentration at which cell proliferation was reduced by 50% compared with the untreated control, were calculated using GraphPad Prism 5 (GraphPad Software, San Diego, CA, USA). Each in vitro experiment was conducted on two microplates with a minimum of five parallel wells. […] Cisplatin was used as a reference agent. The antiproliferative capacities of the prepared compounds were determined by employing the MTT assay against a panel of human adherent cancer cell lines isolated from breast (MCF-7 and MDA-MB-231) or cervical (HeLa and SiHa) tumors. All compounds were tested at two concentrations (10 and 30 μM). When >50% of antiproliferative capacity was obtained at 10 μM, the assays were repeated with a broader concentration range (0.1–30 μM), and IC50 values were calculated (Figure 2, Supplementary Table S1, Supplementary Figure S1). […] MTT assays were performed against the non-cancerous fibroblast cell line NIH/3T3 to obtain preliminary data on cancer selectivity of 16AABE and 16BABE. […] The ratios of IC50 values obtained against cancer cells and fibroblasts were in the range of 0.2 and 0.5, indicating substantial cancer selectivity of these two compounds (Table 1).

[7] = test system: MCF-7; assay: cells; design: MTT assay, growth inhibition of cells relative to untreated control; conditions: Homo sapiens, MCF7; for inhibition at 10 µM: read-out: Growth inhibition (%) at 10 uM; for inhibition at 30 µM: read-out: Growth inhibition (%) at 30 uM
Experimental: as §2

[8] = test system: MDA-MB-231; assay: cells; design: MTT assay, growth inhibition of cells relative to untreated control; conditions: Homo sapiens, MDA-MB-231; for inhibition at 10 µM: read-out: Growth inhibition (%) at 10 uM; for inhibition at 30 µM: read-out: Growth inhibition (%) at 30 uM
Experimental: as §2

[9] = test system: NIH/3T3; assay: cells; design: MTT assay, growth inhibition of cells relative to untreated control; conditions: Mus musculus, NIH3T3; read-out: Growth inhibition (%) at 30 uM
Experimental: as §2

[10] = test system: SiHa; assay: cells; design: MTT assay, growth inhibition of cells relative to untreated control; conditions: Homo sapiens, SiHa; for inhibition at 10 µM: read-out: Growth inhibition (%) at 10 uM; for inhibition at 30 µM: read-out: Growth inhibition (%) at 30 uM
Experimental: as §2

[11] = target: T1, estrogen receptor (ERα) (Homo sapiens, UniProt P03372); assay: estrogen-responsive luciferase reporter assay in T47D-KBluc cells (agonism); type: cell-based
T1 construct: gene ESR1
T1 sequence (P03372 whole entry): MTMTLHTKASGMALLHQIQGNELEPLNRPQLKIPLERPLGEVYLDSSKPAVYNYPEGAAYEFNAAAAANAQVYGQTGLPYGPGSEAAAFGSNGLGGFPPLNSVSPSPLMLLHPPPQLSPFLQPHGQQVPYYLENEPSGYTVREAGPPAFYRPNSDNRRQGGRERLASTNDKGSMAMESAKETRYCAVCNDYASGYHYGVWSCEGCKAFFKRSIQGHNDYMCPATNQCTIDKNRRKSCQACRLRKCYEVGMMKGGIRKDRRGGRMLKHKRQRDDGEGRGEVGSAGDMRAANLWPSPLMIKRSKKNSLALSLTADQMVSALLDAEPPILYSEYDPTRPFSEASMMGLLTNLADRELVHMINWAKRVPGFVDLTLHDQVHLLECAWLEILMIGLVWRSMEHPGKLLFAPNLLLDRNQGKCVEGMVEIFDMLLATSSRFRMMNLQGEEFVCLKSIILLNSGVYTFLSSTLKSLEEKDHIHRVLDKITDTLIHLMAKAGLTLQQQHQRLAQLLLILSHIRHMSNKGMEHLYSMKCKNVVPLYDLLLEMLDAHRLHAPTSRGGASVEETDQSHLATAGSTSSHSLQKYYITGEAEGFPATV

Row | Structure (SMILES) | inhibition at 10 µM [1] | inhibition at 30 µM [1] | inhibition at 10 µM [2] | inhibition at 30 µM [2] | inhibition at 10 µM [3] | inhibition at 30 µM [3] | inhibition at 10 µM [4] | inhibition at 30 µM [4] | IC50 [1] | IC50 [2] | IC50 [3] | IC50 [4] | CC50 [5] | inhibition at 10 µM [6] | inhibition at 30 µM [6] | inhibition at 10 µM [7] | inhibition at 30 µM [7] | inhibition at 10 µM [8] | inhibition at 30 µM [8] | inhibition at 30 µM [9] | also measured
1 | C[C@]12CC[C@@H]3c4ccc(OCc5ccccc5)cc4CC[C@H]3[C@@H]1C[C@@H](CN=[N+]=[N-])[C@@H]2O [compound 3, 3] | 25 ± 2.26% | 93.35 ± 0.32% | 27.3 ± 1.28% | 92.55 ± 0.18% | 33.5 ± 2.92% | 89 ± 0.9% | < 20% | 86.46 ± 0.36% |  |  |  |  |  |  |  |  |  |  |  |  | 
2 | C[C@]12CC[C@@H]3c4ccc(OCc5ccccc5)cc4CC[C@H]3[C@@H]1C[C@@H](CN=[N+]=[N-])[C@H]2O [compound 4, 4] | 26.6 ± 1.78% | 52.89 ± 0.49% | < 20% | 52.4 ± 2.5% | 25.1 ± 2.83% | 57.3 ± 0.98% | < 20% | 31.9 ± 0.69% |  |  |  |  |  |  |  |  |  |  |  |  | 
3 | C[C@]12CC[C@@H]3c4ccc(OCc5ccccc5)cc4CC[C@H]3[C@@H]1C[C@@H](CN=[N+]=[N-])C2=O [16AABE, 16α-azidomethyl-3-benzyloxyestra-1,3,5(10)-trien-17-on] |  |  |  |  |  |  |  |  | 5.01 µM | 3.13 µM | 4.72 µM | 4.1 µM | 13.6 µM | 93.22 ± 0.92% | 93.96 ± 0.23% | 91.73 ± 0.71% | 93.85 ± 0.22% | 93.53 ± 0.17% | 95.11 ± 0.31% | 98.29 ± 0.41% | inhibition at 10 µM [10]: 90.1 ± 0.66%; inhibition at 30 µM [10]: 91.48 ± 0.55%
4 | C[C@]12CC[C@@H]3c4ccc(OCc5ccccc5)cc4CC[C@H]3[C@@H]1C[C@H](CN=[N+]=[N-])[C@@H]2O [compound 1, 1] | 33.97 ± 0.33% | 93.1 ± 0.21% | 38.8 ± 0.81% | 92.64 ± 0.22% | 34.07 ± 0.27% | 92.92 ± 0.09% | < 20% | 89.93 ± 0.2% |  |  |  |  |  |  |  |  |  |  |  |  | 
5 | C[C@]12CC[C@@H]3c4ccc(OCc5ccccc5)cc4CC[C@H]3[C@@H]1C[C@H](CN=[N+]=[N-])C2=O [16BABE, 16β-azidomethyl-3-benzyloxyestra-1,3,5(10)-trien-17-on] |  |  |  |  |  |  |  |  | 4.6 µM | 3.15 µM | 8.13 µM | 3.85 µM | 18.9 µM | 93.4 ± 0.13% | 94.33 ± 0.32% | 92.94 ± 0.37% | 93.79 ± 0.4% | 93.65 ± 0.24% | 95.03 ± 0.23% | 94.8 ± 1.63% | EC50 [11]: ~0.178 µM; inhibition at 10 µM [10]: 90.73 ± 0.53%; inhibition at 30 µM [10]: 91.08 ± 0.55%
6 | C[C@]12CC[C@@H]3c4ccc(OCc5ccccc5)cc4CC[C@H]3[C@@H]1C[C@H](CN=[N+]=[N-])[C@H]2O [compound 2, 2] | 29.1 ± 1.06% | 55.5 ± 2.06% | 20.2 ± 2.19% | 51.9 ± 1.85% | 45.1 ± 1.69% | 64.2 ± 1.39% |  | 43.2 ± 2.58% |  |  |  |  |  |  |  |  |  |  |  |  | 
